Reference: US20150245597A1, “HETEROZYGOUS MOUSE WITH AN INACTIVATED BRD1 ALLELE AND USES IN PSYCHIATRY” (CAPNOVA A/S, priority 2012, published 2015)

Experiments:
Assay type in all cases: in vivo, mouse
R mice [1] = assay: Psychotropic drug-induced locomotor hyperactivity test
Protocol: Psychotropic drug-induced locomotor hyperactivity was established by injections with PCP (1.3, 2.5, and 5 mg/kg s.c.), amphetamine (1.3, 2.5, and 5 mg/kg s.c.) and cocaine (10, 20, and 30 mg/kg s.c.) as opposing saline vehicle s.c. and measured by recording both horizontal locomotor activity and rearing activity in an automated photo-cell equipped home-cage.

R mice [2] = assay: Pre-Pulse Inhibition (PPI) test during pharmacological challenge
Protocol: Gaiting and re-activity of the startle reflex was investigated by Acoustic Startle Response (ASR) and Pre-Pulse Inhibition (PPI) tests. In addition to baseline scores mice were also tested during pharmacological challenge; PCP (2.5 and 5 mg/kg s.c.) and amphetamine (2.5 and 5 mg/kg s.c.).

R mice [3] = assay: Tail suspension test (TST) with anti-depressants; details: for depressive equivalent behaviours during TST, difference between R and W mice: imipramine 1 mg/kg and 10 mg/kg, Fluoxetine 5 mg/kg, SC
Protocol: (§2) Depressive equivalent behaviours were assessed by forced swim test (FST) and tail suspension test (TST). Depressive equivalent behaviours (FST and TST) were assessed with anti-depressants (e.g. imipramine at two doses: 1 mg/kg and 10 mg/kg and Fluoxetine: 5 mg/kg, and with normal saline vehicle subcutaneous (SC) injections.

R mice [4] = assay: Forced swim test (FST) with anti-depressants; details: for depressive equivalent behaviours during FST, difference between R and W mice: imipramine 1 mg/kg and 10 mg/kg, Fluoxetine 5 mg/kg, SC
Protocol: as §2

R mice [5] = assay: Y-maze continuous alternation test with PCP challenge; details: R mice vs W, PCP 1.3 mg/kg s.c., p<0.05
Protocol: (§1) Spatial learning and spatial working memory was tested in the Morris Water Maze (MWM). Learning was scored based on latency to escape while memory was scored based on frequency and time spent in each zone of the maze. Exploratory and working memory components was addressed by various types of y-maze alternation tasks including spontaneous alternation test with dark phase testing, continuous alternation, and delayed alternation. Both baseline and induced behaviour (PCP 1.3 mg/kg s.c. and 2.5 mg/kg s.c.) was assessed. In all Y-maze tasks, alternation was calculated as the percentage of right choices out of the total arm entries.

R mice [6] = assay: Y-maze spontaneous alternation test with PCP challenge; details: R mice vs W, PCP 1.3 mg/kg s.c., p<0.01
Protocol: as §1

[7] = Imipramine 10 mg/kg compared with Fluoxetine

`CC(N)Cc1ccccc1` (stereo not shown) [Amphetamine, amphetamine] was tested, and the “drug-induced locomotor activity response (horizontal and rearing activity)” value (R mice [1]; R males compared to W mice, amphetamine 5 mg/kg s.c.) was “obvious hypoactivity” and the “differences between R and W mice in PPI test when challenged” value (R mice [2]; amphetamine at any dose (2.5 and 5 mg/kg s.c.)) was “No differences”.

With `CNCCC(Oc1ccc(C(F)(F)F)cc1)c1ccccc1` (stereo not shown) [Fluoxetine] the “depressive equivalent behaviours during TST, difference between R and W mice” value (R mice [3]) was “reversed” and the “depressive equivalent behaviours during FST, difference between R and W mice” value (R mice [4]) was “reversed”.

`CN(C)CCCN1c2ccccc2CCc2ccccc21` [Imipramine, imipramine] was tested, and the “effect size on depressive equivalent behaviours (TST)” value (R mice [3]; [7]) was “larger effect sizes than Fluoxetine”, the “depressive equivalent behaviours during TST, difference between R and W mice” value (R mice [3]) was “reversed” and the “effect size on depressive equivalent behaviours (FST)” value (R mice [4]; [7]) was “larger effect sizes than Fluoxetine”. For the same molecule, the “depressive equivalent behaviours during FST, difference between R and W mice” value (R mice [4]) was “reversed”.

In the case of `c1ccc(C2(N3CCCCC3)CCCCC2)cc1` [PCP], the “alternation in the continuous alternation test” value (R mice [5]) is reported as “significant reduction”, the “drug-induced locomotor hyperactivity (horizontal and rearing activity)” value (R mice [1]; R males vs W mice, PCP 5 mg/kg s.c.) is reported as “clear sensitivity” and the “inhibition of the startle in the PPI test” value (R mice [2]; R males vs W mice, high prepulse intensities (15 db above background noise level), PCP 5 m/kg s.c.) is reported as “reduced”. For the same molecule, the “Prepulse inhibition, response of R mice as compared to W littermates” value (R mice [2]; Table 1, males only with PCP) was “Decreased” and the “alternation in the spontaneous alternation test” value (R mice [6]) was “significant reduction”.
